Reference: the METLIN SMRT retention time set (Domingo-Almenara et al. 2019)

Test: gradient 5% acetonitrile 3 min, to 50% in 2 min, to 85% in 15 min, held 3 min, 100 µL/min
Details: column: Zorbax Extend-C18 2.1 x 50 mm; eluents: water / acetonitrile, 0.1% formic acid
Outline: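 A Zorbax Extend-C18 column (2.1 × 50 mm, 1.8 μm) run at 100 μL/min with water and acetonitrile, both containing 0.1% formic acid, separated mixtures of ~100 pure standards. The HPLC was coupled to a quadrupole time-of-flight mass spectrometer operated in positive and negative ionization mode, with dead and dwell volumes of 40 μL and 900 μL. Each retention time was taken from a computationally picked adduct peak that was then manually inspected.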

RP-LC retention time [s] | SMILES
713 | O=C(Cn1nc2n(c1=O)CCCCC2)Nc1ccccc1C(F)(F)F
969 | COc1cc(Cl)c(NC(=O)C(=O)c2ccc[nH]2)c(OC)c1
794 | O=c1oc2cc(O)c(Cl)cc2c2c1CCC2
715 | CCN1CCn2cc(S(=O)(=O)Nc3cc(F)ccc3F)cc2C1=O
587 | CCOC(=O)c1cnc2nc(C)ccc2c1Nc1ccc(OC)c(OC)c1
854 | Fc1cccc(CNc2cc(-n3cccn3)ncn2)c1
739 | CCCCn1nc2ccc(S(=O)(=O)N3CCOCC3)cn2c1=O
551 | CC(C)CCN1CCC(N(Cc2cccnc2)C2CCOCC2)CC1
638 | Cc1noc(-c2ccnc(-n3cnc(C(=O)N4CCOCC4)c3)c2)n1
916 | CC(C)c1ccc(N2C=C(C(=O)N3CCOCC3)S(=O)(=O)c3ccccc32)cc1
1020 | Cc1ccc(-c2cc(C(=O)NC3CCCCC3)c(C)[nH]2)cc1C
1080 | CCc1ccc(-c2nc(-c3ccc4nnc(C)n4c3)no2)cc1
791 | CCOc1ccc(CNC(=O)C2CCCN(c3cc(=O)n(C)c(=O)n3CC)C2)cc1OCC (stereo unspecified)
796 | Cc1noc(-c2ccc(OC3CN(S(=O)(=O)c4cn(C)cn4)C3)cc2)n1
710 | COCCC1CCOC2(CCN(C(=O)C3CC3)CC2)C1 (stereo unspecified)
733 | COc1ccc(NC(=O)CCc2c(C)nn(-c3cc(N(C)C)ncn3)c2C)cc1
1000 | CC(NC(=O)c1cnn2c(-c3ccc4c(c3)OCO4)ccnc12)c1ccc(F)cc1 (stereo unspecified)
992 | COc1ccc(N2C(=O)C3N=NN(Cc4nc(-c5ccc(C)cc5)no4)C3C2=O)cc1 (stereo unspecified)
1140 | Cc1cc(F)ccc1NC(=O)C1CCCN(c2nc3c(s2)c(C)nn3-c2ccccc2)C1 (stereo unspecified)
828 | CCCn1cc(CCNC(=O)Nc2cccc(Cl)c2)c2cccnc21
702 | CC(NC(=O)C1CCN(c2cnc3nccnc3c2)CC1)c1ccc(F)cc1 (stereo unspecified)
898 | CC(C)C(NC(=O)Nc1ccc2c(c1)OCO2)C(=O)N1CCc2ccccc21 (stereo unspecified)
949 | Cc1ccc(NC(=O)N2CCCC(C)(C(=O)NCc3ccc(F)cc3)C2)c(C)c1 (stereo unspecified)

RP-LC retention time [s] | SMILES
608 | Cc1noc(C2CCCCN2Cc2cc(=O)n3ccccc3n2)n1 (stereo unspecified)
850 | COCc1noc([C@@H]2CC(F)(F)CN2S(=O)(=O)c2ccccc2)n1
1140 | O=C(c1ccc(Cl)s1)N1CCC(Oc2nc3c(F)cc(F)cc3s2)CC1
1080 | Cc1noc(C)c1S(=O)(=O)N1CCC(CCOc2ccccc2)C1 (stereo unspecified)
910 | COc1cccc(C(=O)NCc2ccc3[nH]c4c(c3c2)CCCC4)c1OC
655 | CC(NC(=O)c1ccc(F)c(F)c1)C(=O)Nc1nc2ccccc2[nH]1 (stereo unspecified)
655 | O=C(c1ccc2c(=O)n(Cc3ccccc3)c(N3CCCC3)nc2c1)N1CCN(c2ccccn2)CC1
1240 | CCOC(=O)c1noc2ncnc(NCCCN3CCCc4ccccc43)c12
835 | Cc1ccc(CNC(=O)CN2CCN(Cc3ccc(F)cc3)C2=O)cc1C
838 | O=C(Nc1cc(Cl)cc(Cl)c1)N1CC(Cc2nc(-c3cnccn3)no2)C1
679 | O=C(NCc1ccc2c(c1)OCO2)c1ccc2ccnc(N3CCN(C(=O)c4ccco4)CC3)c2c1
1250 | COc1cccc(C2Cn3nnc(-c4nc(-c5ccc(OC(C)C)cc5)no4)c3CO2)c1 (stereo unspecified)
1140 | CCOC(=O)c1noc2nc(C)nc(Nc3cccc(CC)c3)c12
685 | CN(C)CCNC(=O)C1CCN(C(=O)c2cc3ccsc3n2Cc2ccc(Cl)cc2)CC1
590 | O=C(CCNc1cnc2cnccn12)NCc1cccc(Cl)c1
1090 | CCCCOc1ccc(C(=O)N(Cc2ccc(Br)o2)C2CCS(=O)(=O)C2)cc1 (stereo unspecified)
748 | CC1CCCN(C(=O)C2c3ccccc3CC(=O)N2C)C1 (stereo unspecified)
1110 | Cc1ccc(-c2coc(-c3ccc(NC(=O)NCc4ccco4)cc3)n2)c(C)c1
723 | Cn1nc(C(=O)Nc2cccc3nsnc23)ccc1=O
858 | CC(C)CN1CCn2cc(S(=O)(=O)Nc3ccc(Cl)cc3F)cc2C1=O
865 | O=C(NC1CCCCCC1)c1cccc(CN2C(=O)C3CCCN3C(=O)c3ccccc32)c1 (stereo unspecified)
842 | O=C(NCC1CCCO1)c1cc(S(=O)(=O)N2CCCCCC2)ccc1Cl (stereo unspecified)
700 | O=C(NCCc1noc(C2CC2)n1)c1cccs1

RP-LC retention time [s] | SMILES
613 | CCc1nc2cc(N3CCC(C(=O)NCCN4CCCCCC4)CC3)cnc2nc1CC
874 | CCn1cc(-c2nc(CC(=O)Nc3ccccc3F)cs2)c2cccnc21
597 | COc1ccc(Cn2c(C)c(CNCc3cccnc3)c(C(=O)O)c2C)cc1
1020 | Cc1ccc(-c2cn(CC(=O)N3CCN(c4cccc(C)c4)CC3)c(=O)o2)cc1
641 | COCc1cc(=O)n(CC(=O)Nc2ccc(Cl)cc2)c(N)n1
1020 | Cc1ccc(NC(=O)c2cc3c(=O)n(CC(C)C)ccc3n2C)cc1Cl
637 | CSc1cccc(NC(=O)C2CCN(C(=O)c3cc(-c4ccncc4)n[nH]3)CC2)c1
778 | Cc1ccc(NC(=O)NC2CCN(c3ccc(F)cc3)C2=O)c(C)c1 (stereo unspecified)
744 | CCOc1cc2c(cc1OCC)C1C(C(=O)N3CCOCC3)c3ccccc3C(=O)N1CC2 (stereo unspecified)
1100 | O=C(NCc1ccc(F)cc1Cl)C1CCCN(c2nccnc2Sc2ccccc2)C1 (stereo unspecified)
1170 | O=S(=O)(NCc1ccccc1F)c1ccccc1-c1nc(-c2cccc(F)c2)no1
892 | CCCC(=O)N1CC(=O)Nc2ccc(Br)cc2C1c1ccccc1 (stereo unspecified)
620 | CC(=O)Nc1ccc(CC(=O)O)cc1
720 | COc1cc(C(C)=O)ccc1OCCCN1CCC(c2noc3cc(F)ccc23)CC1
605 | CC(C)c1nnc2n1CCN(C(=O)c1nccc3ccccc13)C2
661 | CC(=O)Nc1ccc2c(c1)CN(C(=O)c1ccc(F)cc1F)C(C(=O)N(C)C)C2 (stereo unspecified)
829 | Cc1cc(C)cc(NC(=O)Cn2ccc3ccn(C)c3c2=O)c1
610 | O=C(CCc1nc2sc3c(c2c(=O)[nH]1)CCCCC3)N1CCN(C2CCCCC2)CC1
660 | COc1ccc(NC(=O)N2CCC(c3nc(C(=O)N4CCOCC4)c(C)o3)CC2)cc1
843 | Cc1ccc(NC(=O)N2CCC(N3CCN(Cc4ccccc4)C3=O)CC2)cc1C
613 | Cn1c(=O)c(C(=O)NC2CC2)nc2cccnc21
659 | CCCn1cnc2cc(-c3noc(CNC(=O)Cc4ccccc4)n3)ccc21
974 | Cc1cccc(OCC(=O)N2CCc3cc(-c4ccno4)ccc32)c1

RP-LC retention time [s] | SMILES
713 | COCCCNC(=O)c1sc2ncn(CC(=O)N3CC(C)CC(C)C3)c(=O)c2c1C (stereo unspecified)
932 | C=CCN1C(=O)COc2ccc(-c3nc(NC(=O)C(F)(F)F)sc3C)cc21
737 | CSc1nnc(-c2nn(C)c3c2CN(C(=O)c2cccc(Cl)c2)CC3)n1C
984 | O=C(Nc1ccc(OCc2nnc(-c3ccccc3)o2)cc1)C1COc2ccccc2O1 (stereo unspecified)
1180 | CCCn1nnc(NCc2ccc(-c3cc(Cl)ccc3Cl)o2)n1
645 | Cc1cccc(OCCc2noc(C3CCCN3)n2)c1 (stereo unspecified)
863 | Cc1cccc(OCc2nc(-c3ccc4c(c3)nnn4CCC(=O)N3CCOCC3)no2)c1
768 | Cc1ccsc1C(=O)N1CCC2(CC1)NC(=O)N(Cc1ccccc1)C2=O
889 | CN(C)c1ccc(CNc2ccc(-c3nc(-c4ccc(F)cc4)no3)cn2)cc1
929 | Cc1ccc(-n2nc(N3CCCC(C(=O)NCc4ccc(F)cc4)C3)ccc2=O)cc1Cl (stereo unspecified)
922 | COC(=O)c1sccc1NC(=O)C1CCCN(c2ncnc3c2nc2n3CCCCC2)C1 (stereo unspecified)
845 | Clc1ccc(-c2ccc(CNc3nn[nH]n3)o2)c(Cl)c1
886 | CC(C)C(=O)Nc1cccc(N2CC(C(=O)Nc3ccc(C(C)C)cc3)CC2=O)c1 (stereo unspecified)
744 | Cc1ccccc1Nc1c(-c2cccc(O)c2)nc2cnccn12
782 | O=C(O)c1cccn2c(=O)c3cc(Cl)ccc3nc12
693 | CCc1nc2cc(N3CCCC(C(=O)O)C3)cnc2nc1CC (stereo unspecified)
794 | Cc1[nH]c2ccccc2c1C(=O)C(=O)NC(C)c1ccccc1 (stereo unspecified)
978 | Cc1ccc(CNC(=O)C2(C)CCCN(C(=O)Nc3cccc(C)c3C)C2)cc1 (stereo unspecified)
676 | COc1ccc(-c2c(C(=O)NC(C)C)nc3ccccn23)cc1
831 | Cc1sc(NC(=O)C(C)C)nc1-c1ccc2c(c1)NC(=O)C(C)O2 (stereo unspecified)

SMILES | RP-LC retention time [s]
CCOC(=O)c1cncn1C(C)c1ccccc1 (stereo unspecified) | 774
CCn1cc(C)c(C(=O)O)c1CC(=O)N1CCN(C2CCCCC2)CC1 | 597
